Experimental data: patent US20240287138A1, “CYCLIC PEPTIDES FOR INHIBITING TNF RECEPTOR 1 ACTIVITY” (Merck Sharp & Dohme LLC, priority 2023, published 2024)
Numbered stars: 1 amine (or outer) side, 2 acyl side, 3 side chain; on linkers, the order of the positions; unused ones are H or OH. Bridge positions count the residues as written; N and C are the ends. Square brackets hold non-standard residues; d marks the D form. Peptide text beside a SMILES is read from it. * marks the point of attachment. Trp(βS-Me,7-OMe) = COc1cccc2c([C@H](C)[C@H](N)C(=O)O)c[nH]c12; X49 = C[N+](C)(C)CC(=O)N[C@H]1C[C@H](C(=O)[*:2])N([*:1])C1; Trp(1-CH2COOH) = N[C@@H](Cc1cn(CC(=O)O)c2ccccc12)C(=O)O; Trp(βS-Me) = C[C@@H](c1c[nH]c2ccccc12)[C@H](N)C(=O)O; Trp(7-CN) = N#Cc1cccc2c(C[C@H](N)C(=O)O)c[nH]c12; Trp(7-Cl) = N[C@@H](Cc1c[nH]c2c(Cl)cccc12)C(=O)O; Biotin = O=C1N[C@H]2[C@H](CS[C@H]2CCCCC(=O)*)N1; Phe(4-CONH2) = NC(=O)c1ccc(C[C@H](N)C(=O)O)cc1; Phe(4-COOH) = N[C@@H](Cc1ccc(C(=O)O)cc1)C(=O)O; αMeW = C[C@](N)(Cc1c[nH]c2ccccc12)C(=O)O; X1 = O=C([C@@H]1CC[C@H](N[*:1])C1)[*:2]; Orn(N3) = [N-]=[N+]=NCCC[C@H](N)C(=O)O; X65 = O=C(CN(CC1(O)CC1)[*:1])[*:2]; Pip(4-aza) = O=C(O)[C@@H]1CNCCN1; 4Pal = N[C@@H](Cc1ccncc1)C(=O)O; d(αMeP) = C[C@]1(C(=O)O)CCCN1; Pip = O=C(O)[C@@H]1CCCCN1; αMeS = C[C@](N)(CO)C(=O)O; Nle = CCCC[C@H](N)C(=O)O; Dap = NC[C@H](N)C(=O)O; AEA = NCCOCC(=O)O; Sar = CNCC(=O)O

target: T1, human soluble TNFR1 (sTNFR1) (Homo sapiens, UniProt P19438); assay: Human sTNFR1-peptide displacement assay (LanthaScreen Eu TR-FRET binding assay); conditions: not given
T1 construct: made in house; host or cells: Sf21 (baculovirus)
T1 sequence (P19438 with tags, fused parts or gaps): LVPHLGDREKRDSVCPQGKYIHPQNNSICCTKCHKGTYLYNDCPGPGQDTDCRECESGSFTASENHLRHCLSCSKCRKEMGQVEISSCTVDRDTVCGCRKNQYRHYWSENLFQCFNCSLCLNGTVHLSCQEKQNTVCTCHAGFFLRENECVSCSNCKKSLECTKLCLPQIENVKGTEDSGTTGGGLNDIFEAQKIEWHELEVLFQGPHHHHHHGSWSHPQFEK
Description: A. Procedure for Human sTNFR1-Peptide Displacement Assay
The affinity was determined using LanthaScreen Eu-based time-resolved fluorescence resonance energy transfer (TR-FRET)-based binding assay.
A TR-FRET assay measuring the displacement of biotinylated peptide SEQ ID NO. 1 from human soluble TNFR1 (sTNFR1) in a pre-formed complex by a macrocyclic peptide yields the affinity (Kd^app) of the cyclic peptide for sTNFR1. The reagents for the assay include: the C′-terminally 6His-tagged sTNFR1 (residues 1-211) protein purified from a Sf21 baculovirus expression system, the biotin-tagged B0372 peptide described in section “Preparation of Final Compounds”, part E, the LanthaScreen™ anti-His Tag Europium donor (Life Technologies Corporation (San Diego, CA), cat. #PV5597), and a streptavidin-conjugate Alexa Fluor™ 647 acceptor (Invitrogen (Waltham, MA), cat. #S32357). Time-resolved TR-FRET is achieved when sTNFR1 is bound to biotinylated peptide SEQ ID NO. 1 through coupling of the donor and acceptor FRET pair.
100 nM biotinylated peptide SEQ ID NO. […] 100 nM biotinylated peptide SEQ ID NO. 1 was chosen as it reflects the ˜Kd for this complex. After 30 min at ambient temperature, each test peptide (2 mM stock in DMSO) is titrated in a 20 point, ˜3-fold discrete dose-response using an acoustic-dispense liquid handler. Specifically, 80 nL of peptide/DMSO is transferred into a ProxiPlate-384 Plus 384-well assay plate (PerkinElmer, cat. #6008289). To this plate, 8 μL of the previously formed sTNFR 1-biotinylated peptide SEQ ID NO. 1 complex is added and allowed to reach binding equilibrium with the test peptide at ambient temperature for 90 min.
The TR-FRET signal is measured with the following EnVision® settings: excitation laser at 337 nm; emission1=615 nm, emission2=665 nm, LANCE/DELFIA dichroic mirror, delay time=[…]. The signal of each well is determined as the ratio of the emission at 665 nm to that at 615 nm. Percent displacement is determined by normalization to control wells containing DMSO (0%) or a saturating concentration of a displaceable peptide (100%). The %-effect as a function of peptide concentration is fit to a five-parameter logistic fit based on the Morrison equation to account for tight binding kinetics.

Compound | Kd [nM] | IC50 [nM]
CCCC[C@@H]1NC(=O)CSC[C@@H](C(N)=O)NC(=O)[C@H]([C@@H](C)c2c[nH]c3c(OC)cccc23)NC(=O)CN(C)C(=O)[C@H](Cc2ccc(O)cc2)NC(=O)[C@H](Cc2ccc(C(=O)O)cc2)NC(=O)[C@](C)(CO)NC(=O)[C@H](Cc2c[nH]c3c(Cl)cccc23)NC(=O)[C@H](Cc2ccncc2)NC(=O)[C@H](CC(N)=O)NC(=O)CN(CC2(O)CC2)C(=O)[C@H](Cc2c[nH]c3ccccc23)NC(=O)[C@@H]2CCCCN2C(=O)[C@H](Cc2ccncc2)NC1=O [SEQ ID NO. 13] ({CH2CO}-[Nle][4Pal][Pip]W[X65]N[4Pal][Trp(7-Cl)][αMeS][Phe(4-COOH)]Y[Sar][Trp(βS-Me,7-OMe)]C-NH2; thioether N-14) | 1 | –
C[C@@H](c1c[nH]c2ccccc12)[C@@H]1NC(=O)[C@H](CN)NC(=O)[C@H](Cc2ccc(O)cc2)NC(=O)[C@H](CCCN=[N+]=[N-])NC(=O)CSC[C@@H](C(N)=O)NC(=O)[C@](C)(Cc2c[nH]c3ccccc23)NC(=O)CN(C)C(=O)[C@H](Cc2c[nH]cn2)NC(=O)[C@H](Cc2ccc(C(=O)O)cc2)NC(=O)[C@](C)(CO)NC(=O)[C@H](Cc2c[nH]c3c(Cl)cccc23)NC(=O)[C@H](Cc2ccncc2)NC(=O)[C@H](CC(N)=O)NC(=O)[C@H]2CCCN2C1=O [SEQ ID NO. 146] ({CH2CO}-[Orn(N3)]Y[Dap][Trp(βS-Me)][dP]N[4Pal][Trp(7-Cl)][αMeS][Phe(4-COOH)]H[Sar][αMeW]C-NH2; thioether N-14) | – | 0.59

target: T2, TNFα-induced NF-κB signal transduction pathway (TNFR1 signaling) in THP-1 cells (Homo sapiens, UniProt P19438); assay: THP-1 Lucia NF-κB reporter cell assay, inhibition of TNFα-induced NF-κB signaling; assay type: cell-based; conditions: THP-1 NF-κB Lucia reporter cells, 10 ng/mL TNFα, 16-18 h, secreted luciferase; read-out: THP-1 IC50
T2 sequence (P19438 30-455): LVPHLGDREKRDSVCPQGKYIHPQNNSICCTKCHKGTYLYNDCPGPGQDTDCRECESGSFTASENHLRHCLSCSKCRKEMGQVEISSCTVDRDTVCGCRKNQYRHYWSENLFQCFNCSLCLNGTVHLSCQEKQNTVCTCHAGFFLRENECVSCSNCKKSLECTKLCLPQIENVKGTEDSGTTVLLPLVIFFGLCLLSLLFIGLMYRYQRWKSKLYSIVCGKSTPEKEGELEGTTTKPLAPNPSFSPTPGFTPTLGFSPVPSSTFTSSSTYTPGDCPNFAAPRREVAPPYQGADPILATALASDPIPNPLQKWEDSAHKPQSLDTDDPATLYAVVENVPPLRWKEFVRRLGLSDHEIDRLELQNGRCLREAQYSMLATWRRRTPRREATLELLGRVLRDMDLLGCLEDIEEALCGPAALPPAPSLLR
Procedure, shortened: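 Macrocyclic peptides were preincubated 1 h at 37 °C with THP-1 NF-κB-Lucia reporter cells (20,000 cells/well) in antibiotic-free RPMI 1640/10% FBS, then stimulated with 10 ng/mL human TNFα overnight (16-18 h). Secreted luciferase in supernatant was read by luminescence; IC50 from 4-parameter logistic fits.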

Compound | IC50 [nM]
CCCC[C@@H]1NC(=O)CSC[C@@H](C(N)=O)NC(=O)[C@H]([C@@H](C)c2c[nH]c3c(OC)cccc23)NC(=O)CN(C)C(=O)[C@H](Cc2ccc(O)cc2)NC(=O)[C@H](Cc2ccc(C(=O)O)cc2)NC(=O)[C@](C)(CO)NC(=O)[C@H](Cc2c[nH]c3c(Cl)cccc23)NC(=O)[C@H](Cc2ccncc2)NC(=O)[C@H](CC(N)=O)NC(=O)[C@@]2(C)CCCN2C(=O)[C@H](Cc2c[nH]c3ccccc23)NC(=O)[C@@H]2CNCCN2C(=O)[C@H](Cc2ccncc2)NC1=O [SEQ ID NO. 76] ({CH2CO}-[Nle][4Pal][Pip(4-aza)]W[d(αMeP)]N[4Pal][Trp(7-Cl)][αMeS][Phe(4-COOH)]Y[Sar][Trp(βS-Me,7-OMe)]C-NH2; thioether N-14) | 4.7
CN1CC(=O)N[C@@H](CC(N)=O)C(=O)N[C@@H](Cc2ccc(O)cc2)C(=O)N[C@@H](Cc2c[nH]c3ccccc23)C(=O)N[C@@H](CO)C(=O)N[C@@H](Cc2ccc(O)cc2)C(=O)N[C@@H](Cc2ccc(O)cc2)C(=O)N(C)CC(=O)N[C@@H](Cc2c[nH]c3ccccc23)C(=O)N[C@H](C(=O)NCC(=O)NCCOCC(=O)N[C@@H](CCCCNC(=O)CCCC[C@@H]2SC[C@@H]3NC(=O)N[C@@H]32)C(N)=O)CSCC(=O)N[C@@H](Cc2ccccc2)C(=O)N[C@@H](Cc2ccc(O)cc2)C(=O)N[C@@H](CO)C(=O)N[C@@H](Cc2c[nH]c3ccccc23)C1=O [SEQ ID NO. 1] ({CH2CO}-FYSW[Sar]NYWSYY[Sar]WCG[AEA]K(Biotin)-NH2; thioether N-14) | 227
CCCC[C@@H]1NC(=O)[C@@H]2CC[C@@H](C2)NC(=O)[C@H]([C@@H](C)c2c[nH]c3c(OC)cccc23)NC(=O)CN(C)C(=O)[C@H](Cc2ccc(C(=O)O)cc2)NC(=O)[C@H](Cc2ccc(C(N)=O)cc2)NC(=O)[C@](C)(CO)NC(=O)[C@H](Cc2c[nH]c3c(C#N)cccc23)NC(=O)[C@H](Cc2ccc(C(=O)O)cc2)NC(=O)[C@H](CC(N)=O)NC(=O)[C@H]2C[C@H](NC(=O)C[N+](C)(C)C)CN2C(=O)[C@H](Cc2cn(CC(=O)O)c3ccccc23)NC(=O)[C@@H]2CNCCN2C(=O)[C@H](Cc2ccncc2)NC1=O [SEQ ID NO. 139] (cyclo([4Pal][Pip(4-aza)][Trp(1-CH2COOH)][X49]N[Phe(4-COOH)][Trp(7-CN)][αMeS][Phe(4-CONH2)][Phe(4-COOH)][Sar][Trp(βS-Me,7-OMe)][X1][Nle])) | 1
